Data: patent publication US11407715B2, “Substituted indoline derivatives as dengue viral replication inhibitors” (JANSSEN PHARMACEUTICALS, INC., priority 2017, dated 2022)

Key:
[1] = test system: Vero cells; conditions: African green monkey
[2] = test system: DENV-3 strain H87; test: Tetravalent RT-qPCR assay, serotype 3; format: cell-based, Dengue virus; conditions: RT-qPCR serotype 3 H87, Vero cells
Procedure: (§1) The antiviral activity of the compounds of the invention was tested against DENV-1 strain TC974#666 (NCPV), DENV-2 strain 16681, DENV-3 strain H87 (NCPV) and DENV-4 strain H241 (NCPV) in a RT-qPCR assay. Therefore, Vero cells were infected with either DENV-1, or -2, or -3, or -4 in the presence or absence of test compounds. At day 3 post-infection, the cells were lysed and cell lysates were used to prepare cDNA of both a viral target (the 3′UTR of DENV; Table 2) and a cellular reference gene (β-actin, Table 2). Subsequently, a duplex real time PCR was performed on a Lightcycler480 instrument. The generated Cp value is inversely proportional to the amount of RNA expression of these targets. Inhibition of DENV replication by a test compound results in a shift of Cp's for the 3′UTR gene. On the other hand, if a test compound is toxic to the cells, a similar effect on β-actin expression will be observed. The comparative ΔΔCp method is used to calculate ECs50, which is based on the relative gene expression of the target gene (3′UTR) normalized with the cellular housekeeping gene (β-actin). In addition, CC50 values are determined based on the Cp values acquired for the housekeeping gene β-actin.
(§2) The culture medium consisted of minimal essential medium supplemented with 2% of heat-inactivated fetal calf serum, 0.04% gentamycin (50 mg/mL) and 2 mM of L-glutamine. Vero cells, obtained from ECACC, were suspended in culture medium and 75 μL/well was added in 96-well plates (10000 cells/well), which already contain the antiviral compounds. […] In addition, each plate contains wells which are assigned as virus controls (containing cells and virus in the absence of compound) and cell controls (containing cells in the absence of virus and compound). Once the cells were added in the plates, the plates were incubated in a fully humidified incubator (37° C., 5% CO2) until the next day. Dengue viruses serotype-1, 2, 3 and 4 were diluted in order to obtain a Cp of ˜22-24 in the assay. Therefore, 25 μL of virus suspension was added to all the wells containing test compound and to the wells assigned as virus control. In parallel, 25 μL of culture medium was added to the cell controls. Next, the plates were incubated for 3 days in a fully humidified incubator (37° C., 5% CO2). After 3 days, the supernatant was removed from the wells and the cells were washed twice with ice-cold PBS (˜100 μL). The cell pellets within the 96-well plates were stored at −80° C. for at least 1 day. Next, RNA was extracted using the Cells-to-CT™ lysis kit, according to the manufacturer's guideline (Life Technologies). The cell lysates can be stored at −80C or immediately used in the reverse transcription step.
(§3) In preparation of the reverse transcription step, mix A (table 3A) was prepared and 7.57 μL/well was dispensed in a 96-well plate. After addition of 5 μL of the cell lysates, a five minute denaturation step at 75° C. was performed (table 3B). Afterwards, 7.43 μL of mix B was added (table 3C) and the reverse transcription step was initiated (table 3D) to generate cDNA.
(§4) Finally, a RT-qPCR mix was prepared, mix C (table 4A), and 22.02 μL/well was dispensed in 96-well LightCycler qPCR plates to which 3 μL of cDNA was added and the qPCR was performed according to the conditions in table 4B on a LightCycler 480.
(§5) Using the LightCycler software and an in-house LIMS system, dose response curves for each compound were calculated and the half maximal effective concentration (EC50) and the half maximal cytotoxic concentration (CC50) were determined (Tables 5-8).

[3] = test system: DENV-4 strain H241; test: Tetravalent RT-qPCR assay, serotype 4; format: cell-based, Dengue virus; conditions: RT-qPCR serotype 4 H241, Vero cells
Procedure: as §1, §2, §3, §4, §5

[4] = test system: DENV-2 strain 16681; test: Tetravalent RT-qPCR assay, serotype 2; format: cell-based, Dengue virus; conditions: RT-qPCR serotype 2 16681, Vero cells
Procedure: as §1, §2, §3, §4, §5

[5] = test system: DENV-2 16681 strain; test: microbe, parasite or virus in culture; format: cell-based, Dengue virus; conditions: for EC50: DENV-2 16681 eGFP, Vero cells, MOI 0.5, 3 days; for SI: SI=CC50/EC50, DENV-2 antiviral assay
[6] = test system: DENV-1 strain TC974#666; test: Tetravalent RT-qPCR assay, serotype 1; format: cell-based, Dengue virus; conditions: RT-qPCR serotype 1 TC974#666, Vero cells
Procedure: as §1, §2, §3, §4, §5

Structure (SMILES) | CC50 [1] | EC50 [2] | EC50 [3] | EC50 [4] | EC50 [5] | SI [5] | EC50 [6] | EC50 ([2]; Dengue virus, DENV3, Vero) | EC50 ([3]; Dengue virus, DENV4, Vero) | EC50 ([4]; Dengue virus, DENV2, Vero) | EC50 ([6]; Dengue virus, DENV1, Vero)
COc1cc(NC2CC(C(=O)O)C2)cc(NC(C(=O)N2CCc3ccc(OC(F)(F)F)cc32)c2ccc(Cl)cc2)c1 (single isomer, unassigned) [Compound 33D] | 18000 nM | 2.3 nM | 22 nM | 0.66 nM | 0.52 nM | 39000 | 0.48 nM |  |  |  | 
COc1cc(NC(C(=O)N2CCc3ccc(OC(F)(F)F)cc32)c2ccc(Cl)cc2)cc(OCC2CC2C(=O)O)c1 (centres unmarked) [Compound 6AB] | 12000 nM | 0.13 nM | 2.9 nM | 0.017 nM | 0.016 nM | >199223 | 0.022 nM |  |  |  | 
COc1cc(NC(C(=O)N2CCc3ccc(OC(F)(F)F)cc32)c2ccc(Cl)cc2)cc(OCC2CC2C(=O)O)c1 (centres unmarked) [Compound 6BB] | 12000 nM | 1.6 nM | 20 nM | 0.12 nM | 0.18 nM | 83800 | 0.13 nM |  |  |  | 
COc1cc(NC(C(=O)N2CCc3ccc(OC(F)(F)F)cc32)c2ccc(Cl)cc2)cc(OC2CC(C(=O)O)C2)c1 (centres unmarked) [Compound 7B] | 13000 nM | 1.8 nM | 13 nM | 0.12 nM | 0.12 nM | 121027 | 0.15 nM |  |  |  | 
COc1cc(NC(C(=O)N2CCc3ccc(OC(F)(F)F)cc32)c2ccc(Cl)cc2)cc(OC2CC(C(=O)O)C2)c1 (centres unmarked) [Compound 8B] | 14000 nM | 0.16 nM | 1.3 nM | 0.025 nM | 0.023 nM | >102836 | 0.032 nM |  |  |  | 
COc1cc(NC(C(=O)N2CCc3ccc(OC(F)(F)F)cc32)c2ccc(Cl)cc2)cc(OCC2CC(C(=O)O)C2)c1 (centres unmarked) [Compound 10B] | 11000 nM |  |  |  | 0.11 nM | 109987 |  | 2.9 nM | 22 nM | 0.11 nM | 0.27 nM
COc1cc(NC(C(=O)N2CCc3ccc(OC(F)(F)F)cc32)c2ccc(Cl)cc2)cc(OCC2CC(C(=O)O)C2)c1 (centres unmarked) [Compound 11B] | 11000 nM | 1.8 nM | 17 nM | 0.1 nM | 0.11 nM | 118692 | 0.2 nM |  |  |  | 
COc1cc(NC(C(=O)N2CCc3ccc(OC(F)(F)F)cc32)c2ccc(Cl)cc2OC)cc(OCC2CC2C(=O)O)c1 (centres unmarked) [Compound 19AB] | 12000 nM | 0.14 nM | 0.69 nM | 0.014 nM | 0.012 nM | >390600 | 0.021 nM |  |  |  | 
COc1cc(NC(C(=O)N2CCc3ccc(OC(F)(F)F)cc32)c2ccc(Cl)cc2OC)cc(OCC2CC2C(=O)O)c1 (centres unmarked) [Compound 19BB] | 8800 nM | 0.85 nM | 6.8 nM | 0.078 nM | 0.038 nM | >148612 | 0.091 nM |  |  |  | 
COc1cc(NC(C(=O)N2CCc3cc(OC)c(C(F)(F)F)cc32)c2ccc(Cl)cc2)cc(OCC2CC2C(=O)O)c1 (centres unmarked) [Compound 22AB] | 12000 nM | 0.49 nM | 3.3 nM | 0.029 nM | 0.034 nM | >196427 | 0.091 nM |  |  |  | 
COc1cc(NC(C(=O)N2CCc3cc(OC)c(C(F)(F)F)cc32)c2ccc(Cl)cc2)cc(OCC2CC2C(=O)O)c1 (centres unmarked) [Compound 22BB] | 14000 nM | 9 nM | 71 nM | 0.33 nM | 0.46 nM | 27600 | 1.5 nM |  |  |  | 
COc1cc(NC(C(=O)N2CCc3cc(OC)c(C(F)(F)F)cc32)c2ccc(Cl)cc2)cc(OC2CC(C(=O)O)C2)c1 (centres unmarked) [Compound 23B] | 12000 nM |  |  |  | 0.062 nM | >88755 |  | 0.33 nM | 2.7 nM | 0.034 nM | 0.092 nM
COc1cc(NC(C(=O)N2CCc3cc(OC)c(C(F)(F)F)cc32)c2ccc(Cl)cc2)cc(OCC2CC(C(=O)O)C2)c1 (centres unmarked) [Compound 24B] | 12000 nM | 14 nM |  |  | 0.34 nM | 43100 |  |  | 66 nM | 0.26 nM | 2.2 nM
COc1cc(NC(C(=O)N2CCc3cc(OC)c(C(F)(F)F)cc32)c2ccc(Cl)cc2)cc(OCC2CC(C(=O)O)C2)c1 (centres unmarked) [Compound 25B] | 13000 nM | 6.3 nM | 55 nM | 0.27 nM | 0.28 nM | 52900 | 1.3 nM |  |  |  | 
COc1cc(NC(C(=O)N2CCc3ccc(OC(F)(F)F)cc32)c2ccc(Cl)cc2)cc(OCC2(F)CC2C(=O)O)c1 (centres unmarked) [Compound 28AB] | 13000 nM | 5.3 nM | 69 nM | 0.31 nM | 0.68 nM | 19000 | 0.41 nM |  |  |  | 
COc1cc(NC(C(=O)N2CCc3ccc(OC(F)(F)F)cc32)c2ccc(Cl)cc2)cc(OCC2(F)CC2C(=O)O)c1 (centres unmarked) [Compound 29AB] | 12000 nM | 4.6 nM | 35 nM | 0.25 nM | 0.53 nM | 22300 | 0.23 nM |  |  |  | 
COc1cc(NC(C(=O)N2CCc3cc(F)c(OC(F)(F)F)cc32)c2ccc(Cl)cc2)cc(OCC2CC(C(=O)O)C2)c1 (centres unmarked) [Compound 31A] | 12000 nM | 1.5 nM | 17 nM | 0.11 nM | 0.2 nM | 70300 | 0.19 nM |  |  |  | 
